Literature values, collected in patent publication US10308663B2, “Inhibitors of PTP4A3 for the treatment of cancer” (University of Virginia Patent Foundation, priority 2015, dated 2019).

Tested on: YOP(H?)
Settings: DiFMUP as a substrate; reported by Hoeger et al.; cited from earlier work

Nc1c[nH]c(=O)c2cc(-c3ccccc3)sc12 [Thienopyridone (5), 7-amino-2-phenylthieno[3,2-c]pyridin-4(5H)-one]
IC50: 61 µM
